Measurements: the supplement of paper PMC6045584
± gives the standard deviation of the averaged measurements.

What was measured:
[1] = compound: CN(C)C/C=C/C(=O)Nc1cc2c(Nc3ccc(F)c(Cl)c3)ncnc2cc1O[C@H]1CCOC1 [AFATINIB]; experiment: surviving fraction relative to DMSO-only wells; higher = less growth inhibition; settings: exposure time: 5 days
Outline: (§1)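 At 250–500 cells per well in 384-well plates, log-phase tumour cell lines were seeded and, 24 hours on, exposed continuously for five days to inhibitors at 0.5, 1, 5, 10, 50, 100, 500 and 1000 nM. Viability readout was CellTiter-Glo luminescence, reported as surviving fraction normalised to the median of DMSO-only wells.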

[2] = compound: T1, CNC(=O)c1ccc(N2C(=S)N(c3ccc(C#N)c(C(F)(F)F)c3)C(=O)C2(C)C)cc1F [MDV3100]; experiment: as above; settings: exposure time: 5 days
Outline: as §1

[3] = compound: CC1(C)CC(=O)c2c(C(F)(F)F)nn(-c3ccc(C(N)=O)c(N[C@H]4CC[C@H](OC(=O)CN)CC4)c3)c2C1 [SNX-5422]; experiment: area under dose-response curve of surviving fraction (unscaled, Aref=0) (surviving fraction x log10(nM)); higher = more resistant; settings: exposure time: 5 days; dose range 0.5-1000 nM
Outline: (§2)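 Inhibitor was applied to tumour cell lines at eight concentrations (0.5 to 1000 nM) for five days in 384-well plates. Luminescence from CellTiter-Glo, scaled to DMSO-only wells, gave surviving fractions in three screens per line, and these were fitted by 3-parameter logistic regression with the drc R package. The area under the curve is an unscaled activity area. Aref was 0, and dose was on a log10 scale.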

[4] = compound: CC[C@@H]1C(=O)N(C)c2cnc(Nc3ccc(C(=O)NC4CCN(C)CC4)cc3OC)nc2N1C1CCCC1 [BI-2536]; experiment: as above; settings: exposure time: 5 days; dose range 0.5-1000 nM
Outline: as §2

[5] = compound: T1, MDV3100; experiment: as above; settings: exposure time: 5 days; dose range 0.5-1000 nM
Outline: as §2

[6] = compound: Nc1nc2[nH]cnc2c(=S)[nH]1 [TIOGUANINE]; experiment: as above; settings: exposure time: 5 days; dose range 0.5-1000 nM
Outline: as §2

Test System | surviving fraction ([1]; 0.5 nM) | surviving fraction ([1]; 1 nM) | surviving fraction ([1]; 5 nM) | surviving fraction ([1]; 10 nM) | surviving fraction ([1]; 50 nM) | surviving fraction ([1]; 100 nM) | surviving fraction ([1]; 500 nM) | surviving fraction ([1]; 1000 nM) | surviving fraction ([2]; 0.5 nM) | surviving fraction ([2]; 1 nM) | surviving fraction ([2]; 5 nM) | surviving fraction ([2]; 10 nM) | surviving fraction ([2]; 50 nM) | surviving fraction ([2]; 100 nM) | surviving fraction ([2]; 500 nM) | surviving fraction ([2]; 1000 nM) | area under dose-response curve [3] | area under dose-response curve [4] | area under dose-response curve [5] | area under dose-response curve [6]
MDAMB231 BREAST | 1.05 ± 0.026 | 1.05 ± 0.028 | 1.06 ± 0.037 | 1.05 ± 0.027 | 1.04 ± 0.03 | 0.995 ± 0.025 | 0.668 ± 0.013 | 0.335 ± 0.021 | 0.961 ± 0.034 | 0.954 ± 0.035 | 0.978 ± 0.022 | 0.969 ± 0.012 | 0.988 ± 0.034 | 0.997 ± 0.025 | 0.96 ± 0.026 | 0.944 ± 0.014 | 2.3 | 1.56 | 3.22 | 3.15
MDAMB361 BREAST | 0.932 ± 0.059 | 0.796 ± 0.034 | 0.81 ± 0.041 | 0.799 ± 0.06 | 0.682 ± 0.088 | 0.629 ± 0.04 | 0.535 ± 0.02 | 0.459 ± 0.027 | 0.907 ± 0.073 | 0.81 ± 0.075 | 0.935 ± 0.068 | 0.874 ± 0.074 | 0.831 ± 0.14 | 0.806 ± 0.074 | 0.921 ± 0.085 | 0.831 ± 0.077 | 2.27 | 1.68 | 2.85 | 2.95
MDAMB436 BREAST | 0.924 ± 0.014 | 0.974 ± 0.078 | 0.922 ± 0.05 | 0.905 ± 0.0097 | 0.996 ± 0.063 | 0.892 ± 0.035 | 0.763 ± 0.06 | 0.647 ± 0.029 | 0.965 ± 0.086 | 0.884 ± 0.076 | 0.9783 ± 0.0076 | 0.95 ± 0.024 | 0.999 ± 0.1 | 0.9082 ± 0.0022 | 0.925 ± 0.083 | 0.86 ± 0.036 | 2.16 | 1.46 | 3.1 | 2.8
MDAMB453 BREAST | 1.08 ± 0.061 | 1 ± 0.045 | 1.05 ± 0.064 | 1.05 ± 0.029 | 0.777 ± 0.076 | 0.668 ± 0.091 | 0.576 ± 0.027 | 0.41 ± 0.026 | 0.953 ± 0.045 | 0.942 ± 0.071 | 0.962 ± 0.055 | 0.98 ± 0.07 | 0.956 ± 0.054 | 0.967 ± 0.037 | 0.985 ± 0.032 | 0.924 ± 0.0079 | 2.06 | 0.857 | 3.16 | 3.28
MDAMB468 BREAST | 1.07 ± 0.026 | 1.04 ± 0.021 | 0.861 ± 0.078 | 0.767 ± 0.14 | 0.61 ± 0.017 | 0.617 ± 0.025 | 0.297 ± 0.012 | 0.0913 ± 0.0067 | 0.972 ± 0.053 | 0.952 ± 0.072 | 1.05 ± 0.11 | 1.01 ± 0.068 | 1.14 ± 0.094 | 1.04 ± 0.13 | 1.05 ± 0.038 | 0.97 ± 0.11 | 1.94 | 1.06 | 3.41 | 3.52
MG63 BONE | 1.02 ± 0.046 | 1.03 ± 0.023 | 1.08 ± 0.022 | 1.058 ± 0.0069 | 1.05 ± 0.059 | 1.08 ± 0.017 | 0.951 ± 0.04 | 0.831 ± 0.038 | 0.988 ± 0.0044 | 0.953 ± 0.026 | 1.01 ± 0.015 | 0.999 ± 0.028 | 1.02 ± 0.013 | 1.02 ± 0.019 | 0.968 ± 0.03 | 0.931 ± 0.011 | 2.18 | 1.12 | 3.28 | 3.29
MHM BONE | 1.022 ± 0.0067 | 1 ± 0.018 | 1.02 ± 0.016 | 1 ± 0.03 | 1.07 ± 0.028 | 1.03 ± 0.016 | 0.961 ± 0.041 | 0.883 ± 0.022 | 1 ± 0.039 | 1 ± 0.054 | 1.01 ± 0.025 | 1.01 ± 0.039 | 1.02 ± 0.02 | 1.01 ± 0.029 | 0.973 ± 0.012 | 0.952 ± 0.0046 | 2.48 | 2.08 | 3.28 | 3.29
NCIH441 LUNG | 1.15 ± 0.086 | 1.11 ± 0.042 | 1.1 ± 0.1 | 1.04 ± 0.04 | 1.03 ± 0.042 | 0.851 ± 0.11 | 0.686 ± 0.027 | 0.409 ± 0.017 | 1.02 ± 0.05 | 1.04 ± 0.066 | 1.03 ± 0.052 | 1 ± 0.071 | 1.05 ± 0.077 | 0.924 ± 0.11 | 0.956 ± 0.16 | 0.863 ± 0.11 | 2.63 | 1.79 | 3.25 | 3.28
NY BONE | 0.991 ± 0.051 | 0.983 ± 0.013 | 1.02 ± 0.062 | 1.038 ± 0.008 | 1.03 ± 0.053 | 0.996 ± 0.017 | 0.683 ± 0.029 | 0.392 ± 0.017 | 0.886 ± 0.021 | 0.887 ± 0.029 | 0.943 ± 0.035 | 0.933 ± 0.023 | 0.93 ± 0.0093 | 1.01 ± 0.022 | 0.924 ± 0.026 | 0.884 ± 0.039 | 1.89 | 0.972 | 3.06 | 3.27
OS25HAL BONE | 0.966 ± 0.014 | 1.01 ± 0.018 | 1 ± 0.029 | 1 ± 0.044 | 1.03 ± 0.039 | 1.08 ± 0.013 | 1.02 ± 0.03 | 0.855 ± 0.085 | 0.968 ± 0.03 | 0.932 ± 0.015 | 0.962 ± 0.018 | 0.959 ± 0.011 | 1.06 ± 0.013 | 1.06 ± 0.03 | 1.04 ± 0.026 | 1.01 ± 0.057 | 2.27 | 0.792 | 3.23 | 3.21
PCI30 HEADNECK | 1.01 ± 0.1 | 0.94 ± 0.073 | 0.616 ± 0.019 | 0.459 ± 0.0087 | 0.4 ± 0.022 | 0.358 ± 0.035 | 0.241 ± 0.063 | 0.064 ± 0.011 | 0.908 ± 0.034 | 0.831 ± 0.075 | 0.954 ± 0.071 | 1.01 ± 0.08 | 1.09 ± 0.056 | 1 ± 0.014 | 0.861 ± 0.088 | 0.945 ± 0.036 | 2.2 | 1.08 | 3.18 | 3.19
SAOS2 BONE | 1.15 ± 0.11 | 1.21 ± 0.067 | 1.15 ± 0.018 | 1.104 ± 0.0087 | 1.1 ± 0.013 | 1.06 ± 0.089 | 0.603 ± 0.0052 | 0.186 ± 0.034 | 1.08 ± 0.054 | 1.07 ± 0.026 | 1.17 ± 0.026 | 1.07 ± 0.031 | 1.14 ± 0.033 | 1.14 ± 0.1 | 1.11 ± 0.085 | 1.07 ± 0.12 | 1.96 | 0.684 | 3.65 | 3.44
SCC003 HEADNECK | 1.11 ± 0.093 | 1.04 ± 0.045 | 0.941 ± 0.1 | 0.901 ± 0.095 | 0.636 ± 0.056 | 0.557 ± 0.0066 | 0.518 ± 0.068 | 0.425 ± 0.058 | 0.928 ± 0.12 | 0.808 ± 0.069 | 1 ± 0.049 | 0.996 ± 0.051 | 1.06 ± 0.032 | 1.02 ± 0.059 | 1.02 ± 0.044 | 0.858 ± 0.098 | 2.21 | 1.71 | 3.21 | 3.27
